From patent publication US20210179655A1, “Prodrugs of a JAK Inhibitor Compound for Treatment of Gastrointestinal Inflammatory Disease” (THERAVANCE BIOPHARMA R&D IP, LLC, priority 2015, published 2021)

Key:
[1] = Oral pharmacokinetics of compound 1 in cynomolgus monkey; format: in vivo; settings: oral administration of the prodrug
β-glucuronidase = β-glucuronidase (Escherichia coli, UniProt P05804); assay: Metabolic stability of compound 1 in β-glucuronidase from E. coli; format: in vitro ADME; settings: purified β-glucuronidase from E. coli, β-glucuronidase 100 Units/mL, 37° C.
Experimental: The incubations were quenched at timepoints 0, 1, 2, 3, 5, 10, 15, 30, 60, and 90 min by addition of 100 μL of ACN. Samples were diluted with water+1% formic acid (4×) and analyzed using a Thermo Q-Exactive™ LC-MS system.

[2] = test system: oxazolone-induced colitis; assay: Mouse model of oxazolone-induced colitis; format: in vivo
Experimental: Oxazolone-induced colitis is an experimental model that has a histological resemblance to human ulcerative colitis (Heller et al. […], 2002, 17, 629-638). Adult BALB/C mice (25-28 g, 9-12 weeks of age) from BioNeeds (India) were used in the assay. On day 1, animals were lightly anesthetized with isoflurane and the hairs between the shoulder were carefully removed before oxazolone (6 mg/mouse, 100 μL, 4:1 acetone: olive oil formulation) or vehicle solution was slowly applied for skin sensitization. Six days after skin sensitization, the mice were fasted overnight, anesthetized with ketamine and xylazine administered IP, and a 1 mL syringe filled with oxazolone solution, was inserted carefully ˜3.8 cm into the colon of the mouse. Animals were kept in a head down position and oxazolone (0.5 mg/50 μL/mouse in 50% ethanol) or 50% ethanol/saline was rectally instilled very slowly over a minute. The mice were held vertically (head down) for another minute to ensure that the entire oxazolone solution remained inside the colon. Drug treatment (PO, BID or TID) or vehicle was initiated the evening prior to the oxazolone intrarectal (IR) challenge. On both first (Day 1) and second (Day 2) days post-oxazolone IR challenge, the Disease Activity Index (DAI) was assessed by treatment-blinded experimenters for each mouse, according to the following subscores: stool consistency (0, normal; 2, loose; 4, diarrhea), gross bleeding and hemoccult test (0, absence; 2, blood tinged; 4, overt blood presence), and weight loss (0, none; 1, 1%-5%; 2, 6%-10%; 3, 11%-15%; 4, more than 15%); DAI=average of (stool consistency+blood presence+weight loss scores).
An area-under-the-curve (AUC) calculation based on total DAI scores was performed to track disease progression during the course of the experiment. AUC for each experimental group was calculated as: AUC=[(Day 1−Day 0)*Average (DAI Score of Day 0 & Day 1)]+[(Day 2−Day 1)*Average (DAI Score of Day 1 & Day 2)]. A Student's t-test compared the DAI AUC score of the vehicle/vehicle and vehicle/oxazolone groups to evaluate whether disease was induced following oxazolone treatment. This was followed by a one way ANOVA, with Dunnett's post hoc test, to compare the DAI AUC score of the vehicle/oxazolone and test compound/oxazolone groups. Statistical significance was defined by an α level set at p<0.05.

[3] = Rat colon fecal homogenate stability; format: in vitro ADME; settings: male, rat colon fecal homogenate supernatant, 10 μM, read-out: T½ (In vitro colonic stability, loss of pro-drug)
Experimental: The objective of this study was to determine the stability of the present compounds in rat colon fecal homogenate, i.e. the half-life for decomposition in the presence of the β-glucuronidase in rat colon feces.
Following sacrifice of a naïve male rat (˜300 g) by cardiac puncture exsanguination, the colon was ligated and removed to an anaerobic chamber (AS-580, Anaerobe Systems). The fecal content was removed within the chamber and was diluted 1:10 (1 gram to 9 mL phosphate buffer) and then homogenized using a handheld Omni Tissue Master. The fecal homogenate was centrifuged at 2000 g for 10 min to remove bulk and the supernatant was removed and used for the incubations.
Test articles and a positive control (sulfasalazine) were prepared as 10 mM DMSO stocks. The final substrate concentration of each assay was 10 μM (30 μM for compound 5). Reactions were started by adding a 5 μL aliquot of diluted test compound stock into 300 μL of rat fecal supernatant-homogenate. At 0, 15, 30, 60, 90, and 120 min post reaction initiation, a 50 μL aliquot was removed into 200 μL of acetonitrile with 3% formic acid and an internal standard molecule. All samples were centrifuged at 2000 g for 10 min after which 50 μL of supernatant was diluted into 150 μL of water for analysis on an LC-MS system. In vitro half-lives for loss of pro-drug were calculated as follows: (T½=0.693/elimination rate constant).

JAK2 = JAK2 (Homo sapiens, UniProt O60674); assay: Biochemical JAK kinase assay (LanthaScreen) JAK2
Experimental: (§1) A panel of four LanthaScreen JAK biochemical assays (JAK1, 2, 3 and Tyk2) were carried in a common kinase reaction buffer (50 mM HEPES, pH 7.5, 0.01% Brij-35, 10 mM MgCl2, and 1 mM EGTA). Recombinant GST-tagged JAK enzymes and a GFP-tagged STAT1 peptide substrate were obtained from Life Technologies.
(§2) Serially diluted compounds were pre-incubated with each of the four JAK enzymes and the substrate in white 384-well microplates (Corning) at ambient temperature for 1 h. ATP was subsequently added to initiate the kinase reactions in 10 μL total volume, with 1% DMSO. […] The JAK1 kinase activity was also tested at 1 mM ATP concentration. […] The plates were allowed to incubate at ambient temperature for 1 h before being read on the EnVision reader (Perkin Elmer).
(§3) For dose-response analysis, percent inhibition data were plotted vs. compound concentrations, and IC50 values were determined from a 4-parameter robust fit model with the Prism software (GraphPad Software). Results were expressed as pIC50 (negative logarithm of IC50) and subsequently converted to pKi (negative logarithm of dissociation constant, Ki) using the Cheng-Prusoff equation.

[4] = Metabolic stability of comparison compounds in rat colon content; format: in vitro ADME; settings: 10 μM in rat colonic content, up to 120 min
Experimental: Colonic fecal content was harvested from a naïve male Sprague Dawley rat and was diluted 1:10 (1 gram to 9 mL phosphate buffer) and then homogenized using a handheld Omni Tissue Master. […] A 5 μL aliquot of diluted test compound was spiked into 300 μL of rat colonic content homogenate to begin the reaction at 37° C. Aliquots (50 μL) were removed from the incubation at the following time points (0, 15, 50, 85, and 120 min) and added into 200 μL of ACN with 3% formic acid and an internal standard molecule. […] All samples were centrifuged at 2000×g for 10 min after which 50 μL of supernatant was diluted into 150 μL of water and analyzed using a Thermo Q-Exactive LC-MS system. GraphPad Prism and Microsoft Excel were used to tabulate and plot the data.

splenic NK cells = assay: Immunosuppression effects in mouse splenic natural killer (NK) cells; format: in vivo
Experimental: Adult male Balb/C mice (12-14 weeks of age) from Harlan were used for the study. […] Spleens were harvested 30 min or 3 h post last dose and crushed immediately for cell subtype staining. Prior to fixation, fluorophore-labelled antibodies for CD19 (FITC; B cells), CD3e (PE; pan T cells) and DX5 (APC; NK cells) were incubated with splenocyte samples from each animal to allow for simultaneous, multiple subtype % analysis on the flow cytometer. The number of total spleen cells for each animal was measured by Scepter™ 2.0 Handheld Automated Cell Counter.
The absolute number of lymphocyte subtype population (e.g., splenic B, T and NK cells) was calculated from the percentage of each subtype times total spleen cells for each animal. A one way ANOVA, with Dunnett's post hoc test, was used to compare the splenic lymphocytes number of the vehicle and test compound groups. The a level was set at p<0.05. Data were presented as the mean SEM for each group.

TYK2 = TYK2 (Homo sapiens, UniProt P29597); assay: Biochemical JAK kinase assay (LanthaScreen) Tyk2
Experimental: as §1, §2, §3

[5] = test system: Janus kinase (JAK) family of enzymes, non-JAK enzymes, G-protein coupled receptors, ion channels and transporters; assay: Affinity/potency profiling at JAK, non-JAK enzymes, receptors, ion channels and transporters

Chain of TYK2 (P29597 whole entry): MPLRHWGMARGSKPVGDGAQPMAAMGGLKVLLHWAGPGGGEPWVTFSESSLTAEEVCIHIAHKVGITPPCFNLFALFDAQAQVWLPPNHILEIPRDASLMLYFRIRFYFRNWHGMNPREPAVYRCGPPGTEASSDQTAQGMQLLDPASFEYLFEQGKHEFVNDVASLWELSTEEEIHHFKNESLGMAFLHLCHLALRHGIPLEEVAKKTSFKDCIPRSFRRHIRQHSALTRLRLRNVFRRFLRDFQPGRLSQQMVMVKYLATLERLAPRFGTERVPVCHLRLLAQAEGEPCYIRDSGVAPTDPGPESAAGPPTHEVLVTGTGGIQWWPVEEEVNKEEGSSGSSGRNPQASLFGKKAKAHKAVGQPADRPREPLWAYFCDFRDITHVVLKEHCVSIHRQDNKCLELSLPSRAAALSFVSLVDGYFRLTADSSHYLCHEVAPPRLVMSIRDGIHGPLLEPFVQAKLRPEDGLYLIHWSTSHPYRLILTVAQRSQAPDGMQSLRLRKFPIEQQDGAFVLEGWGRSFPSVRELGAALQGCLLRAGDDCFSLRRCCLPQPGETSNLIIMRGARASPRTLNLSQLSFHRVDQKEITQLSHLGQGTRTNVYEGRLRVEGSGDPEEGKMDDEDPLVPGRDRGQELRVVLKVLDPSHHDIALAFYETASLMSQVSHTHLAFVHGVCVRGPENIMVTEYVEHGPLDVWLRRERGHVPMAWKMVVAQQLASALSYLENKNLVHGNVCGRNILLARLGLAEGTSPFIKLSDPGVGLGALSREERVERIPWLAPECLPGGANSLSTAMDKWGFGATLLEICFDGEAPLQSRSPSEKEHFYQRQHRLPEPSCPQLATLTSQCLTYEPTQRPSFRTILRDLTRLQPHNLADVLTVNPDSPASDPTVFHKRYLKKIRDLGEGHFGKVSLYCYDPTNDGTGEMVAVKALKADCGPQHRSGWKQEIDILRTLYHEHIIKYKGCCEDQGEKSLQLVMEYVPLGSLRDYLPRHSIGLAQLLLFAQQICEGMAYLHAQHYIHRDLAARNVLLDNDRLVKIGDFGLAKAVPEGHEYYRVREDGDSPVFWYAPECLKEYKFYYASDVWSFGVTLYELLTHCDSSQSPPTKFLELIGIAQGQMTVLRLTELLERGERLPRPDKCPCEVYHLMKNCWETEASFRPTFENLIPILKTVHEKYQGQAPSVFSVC
Chain of JAK2 (O60674 whole entry): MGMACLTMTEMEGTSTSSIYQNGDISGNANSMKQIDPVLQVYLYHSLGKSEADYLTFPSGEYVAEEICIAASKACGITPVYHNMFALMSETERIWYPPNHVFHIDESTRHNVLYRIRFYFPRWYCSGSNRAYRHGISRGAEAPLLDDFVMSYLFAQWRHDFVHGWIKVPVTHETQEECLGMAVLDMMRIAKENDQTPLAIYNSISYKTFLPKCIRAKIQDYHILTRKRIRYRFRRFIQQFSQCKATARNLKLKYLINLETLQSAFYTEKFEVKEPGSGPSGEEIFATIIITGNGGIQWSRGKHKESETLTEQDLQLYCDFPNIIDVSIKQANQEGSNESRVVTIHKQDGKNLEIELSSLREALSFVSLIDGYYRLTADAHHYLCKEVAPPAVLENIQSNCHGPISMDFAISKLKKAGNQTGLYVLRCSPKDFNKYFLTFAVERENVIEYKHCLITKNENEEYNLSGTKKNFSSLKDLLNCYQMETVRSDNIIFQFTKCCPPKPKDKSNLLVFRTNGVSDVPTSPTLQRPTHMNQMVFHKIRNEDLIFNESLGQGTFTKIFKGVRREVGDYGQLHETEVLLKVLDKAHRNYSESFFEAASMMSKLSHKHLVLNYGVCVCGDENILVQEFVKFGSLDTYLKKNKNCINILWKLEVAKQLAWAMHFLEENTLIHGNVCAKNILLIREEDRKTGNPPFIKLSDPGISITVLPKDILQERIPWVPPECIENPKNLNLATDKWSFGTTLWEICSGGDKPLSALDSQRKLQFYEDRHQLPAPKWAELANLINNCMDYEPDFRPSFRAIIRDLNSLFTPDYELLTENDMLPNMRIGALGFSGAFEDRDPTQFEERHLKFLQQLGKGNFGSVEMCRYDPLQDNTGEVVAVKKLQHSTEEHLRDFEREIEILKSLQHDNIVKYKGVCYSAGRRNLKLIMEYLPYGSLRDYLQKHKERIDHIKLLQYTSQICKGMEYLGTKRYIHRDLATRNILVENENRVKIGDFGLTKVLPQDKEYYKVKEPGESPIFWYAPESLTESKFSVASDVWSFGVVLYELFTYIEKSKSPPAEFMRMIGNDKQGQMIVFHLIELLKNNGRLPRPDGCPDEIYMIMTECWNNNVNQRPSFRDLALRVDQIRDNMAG
Chain of β-glucuronidase (P05804 whole entry): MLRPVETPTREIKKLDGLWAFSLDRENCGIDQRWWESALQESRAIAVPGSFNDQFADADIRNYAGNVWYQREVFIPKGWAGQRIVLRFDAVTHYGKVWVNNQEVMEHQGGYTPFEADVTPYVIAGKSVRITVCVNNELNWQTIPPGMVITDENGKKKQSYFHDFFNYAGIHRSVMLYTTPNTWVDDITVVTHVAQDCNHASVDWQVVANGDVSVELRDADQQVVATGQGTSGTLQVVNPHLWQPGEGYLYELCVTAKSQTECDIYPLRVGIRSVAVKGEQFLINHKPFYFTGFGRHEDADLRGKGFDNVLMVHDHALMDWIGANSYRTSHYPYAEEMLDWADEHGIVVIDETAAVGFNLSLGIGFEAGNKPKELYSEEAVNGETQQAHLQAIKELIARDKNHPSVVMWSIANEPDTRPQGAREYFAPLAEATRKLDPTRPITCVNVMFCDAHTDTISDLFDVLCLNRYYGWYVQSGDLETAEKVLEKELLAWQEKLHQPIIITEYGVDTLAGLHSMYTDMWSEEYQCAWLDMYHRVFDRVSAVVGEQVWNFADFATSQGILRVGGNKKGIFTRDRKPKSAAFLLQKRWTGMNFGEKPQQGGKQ

Q: For C[C@@H]1CCN(C(=O)CC#N)C[C@@H]1N(C)c1ncnc2c1ccn2C(=O)N(C)CCN(C)C(=O)OCc1ccc(O[C@@H]2O[C@H](C(=O)O)[C@@H](O)[C@H](O)[C@H]2O)c([N+](=O)[O-])c1 [Compound 1, (2S,3S,4S,5R,6S)-6-(4-((((2-(4-(((3R,4R)-1-(2-cyanoacetyl)-4-methylpiperidin-3-yl)(methyl)amino)-N-methyl-7H-pyrrolo[2,3-d]pyrimidine-7-carboxamido)ethyl)(methyl)carbamoyl)oxy)methyl)-2-nitrophenoxy)-3,4,5-trihydroxytetrahydro-2H-pyran-2-carboxylic acid], which “increase in tofacitinib concentration in cecum, proximal, and distal colon tissue versus oral tofacitinib” value [1] is on record?
A: five- to seven-fold

Q: What about the half-life at 30 μM (β-glucuronidase) of the same compound?
A: < 5 min

Q: What about the “reversal of oxazolone-induced colitis (DAI AUC score)” value ([2]; 3, 10, and 60 mg/kg, PO, BID, similar magnitude to tofacitinib 30 and 60 mg/kg) of the same compound?
A: significant reversal

Q: What about the “In vivo efficacy (oxazolone colitis), effective dose” value ([2]; Effective dose that exhibits a comparable pharmacological effect in the oxazolone model compared to its vehicle) of the same compound?
A: 3 mg/kg

Q: And the half-life at 10 μM [3]?
A: 1 to 15 min

Q: What about the Ki (JAK2) of the same compound?
A: > 0.631 µM

Q: What about the “generation of active metabolite from the pro-drug” value [4] of the same compound?
A: generated measurable levels

Q: What about the “splenic NK cell counts” value (splenic NK cells; PO (BID) doses up to 10 mg/kg (maximum dose tested), three days, naïve mice) of the same compound?
A: unaffected

Q: What about the “Systemic functional activity (splenic NK depletion)” value (splenic NK cells; mouse, oral dosing for three days) of the same compound?
A: >10 mg/kg

Q: What about the Ki (TYK2) of the same compound?
A: > 1 µM

Q: What about the “affinity for, or potency at, JAK enzymes, non-JAK enzymes, GPCRs, ion channels and transporters” value [5] of the same compound?
A: no significant affinity for, or potency at
